{"source": "patent US20150253330A1", "about": "“PRE-SELECTION OF SUBJECTS FOR THERAPEUTIC TREATMENT WITH AN HSP90 INHIBITOR BASED ON HYPOXIC STATUS” (Synta Pharmaceuticals Corp., priority 2012, published 2015)", "tested_on": "HIF-1α and VEGF", "assay": "Western blot of HIF-1α and VEGF in pancreatic cancer cell lines", "assay_type": "cell-based", "conditions": "50 nM, 24 h", "experimental": "It's postulated that functional inhibition of Hsp90 by ganetespib can inhibit angiogenesis and growth in vitro and in vivo models of pancreatic cancer. PANC-1 and HPAC cell lines were treated with vehicle or G (50 nM) for 24 h and lysates were analyzed by Western blot. Egg CAM and matrigel plug assays were performed to quantify the effects of ganetespib on angiogenesis. Efficacy of ganetespib (100 mg/kg) was assessed in mice bearing HPAC and ASPC-1 xenograft.\nPrimary antibodies specific to Hsp90, HIF-1α, VEGF, Actin and HRP conjugated secondary antibodies (Santa Cruz Biotechnology, California and Cell Signaling Technology, USA) were used for Western blot. Ganetespib was provided by Synta Pharmaceuticals, Lexington, Mass. and Matrigel was purchased from BD Biosciences.\nCells were harvested at the end of treatment and lysed in the RIPA protein extraction buffer (Sigma-Aldrich, Saint Louis, Mo., USA) containing the protease inhibitor cocktail. Equal amounts of protein fractions of lysates were resolved over SDS-PAGE and transferred on to PVDF membrane. Membranes were incubated with primary antibodies followed by HRP-conjugated secondary antibodies. Bound antibodies were visualized using enhanced chemiluminescence. To confirm equal loading, membranes were verified and re-probed with an antibody specific for the housekeeping gene, anti-β-actin.", "note": "“Also recorded” adds a separate entry of the source.", "data": [{"smiles": "CC(C)c1cc(-c2nnc(O)n2-c2ccc3c(ccn3C)c2)c(O)cc1O", "note": "[ganetespib]", "values": [{"measurement": "HIF-1α and VEGF protein levels", "value": "decreased HIF-1α a and VEGF expression; also recorded: decreased levels"}]}]}
